According to the supplement of paper PMC10307832:

How the values were obtained:
Experiment in all cases: relative viability (nuclei count vs DMSO), 5 days (fraction); higher = more cells survive
Vismodegib + Palbociclib = compound: CS(=O)(=O)c1ccc(C(=O)Nc2ccc(Cl)c(-c3ccccn3)c2)c(Cl)c1 [Vismodegib] + CC(=O)c1c(C)c2cnc(Nc3ccc(N4CCNCC4)cn3)nc2n(C2CCCC2)c1=O [Palbociclib] (partner 0.5 µM)
Outline: (§1)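 Lung cancer cell lines were seeded in 1536-well plates and dosed by pin tool the next day, with either a single drug or a fixed anchor-drug dose combined with five library-drug doses (not always all listed) spaced in √10 steps. Five days later, one step fixed the cells and stained their nuclei (final 0.05% Triton X-100, 1% formaldehyde, 1 ug/ml Hoechst), and nuclei were counted on 4× images. Relative viability is the nuclei count in treated wells divided by the count in vehicle wells, and each value is the median of duplicate plates.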

Vismodegib + Linsitinib = compound: CS(=O)(=O)c1ccc(C(=O)Nc2ccc(Cl)c(-c3ccccn3)c2)c(Cl)c1 [Vismodegib] + C[C@]1(O)C[C@@H](c2nc(-c3ccc4ccc(-c5ccccc5)nc4c3)c3c(N)nccn32)C1 [Linsitinib] (partner 1 µM)
Outline: as §1

Vismodegib + Vorinostat = compound: CS(=O)(=O)c1ccc(C(=O)Nc2ccc(Cl)c(-c3ccccn3)c2)c(Cl)c1 [Vismodegib] + O=C(CCCCCCC(=O)Nc1ccccc1)NO [Vorinostat] (partner 1 µM)
Outline: as §1

Ruxolitinib + Linsitinib = compound: N#CC[C@H](C1CCCC1)n1cc(-c2ncnc3[nH]ccc23)cn1 [Ruxolitinib] + C[C@]1(O)C[C@@H](c2nc(-c3ccc4ccc(-c5ccccc5)nc4c3)c3c(N)nccn32)C1 [Linsitinib] (partner 1 µM)
Outline: as §1

| Cell Line | relative viability (Vismodegib + Palbociclib; first compound 0.08 µM) | relative viability (Vismodegib + Palbociclib; first compound 0.253 µM) | relative viability (Vismodegib + Palbociclib; first compound 0.8 µM) | relative viability (Vismodegib + Palbociclib; first compound 2.53 µM) | relative viability (Vismodegib + Palbociclib; first compound 8 µM) | relative viability (Vismodegib + Linsitinib; first compound 0.08 µM) | relative viability (Vismodegib + Linsitinib; first compound 0.253 µM) | relative viability (Vismodegib + Linsitinib; first compound 0.8 µM) | relative viability (Vismodegib + Linsitinib; first compound 2.53 µM) | relative viability (Vismodegib + Linsitinib; first compound 8 µM) | relative viability (Vismodegib + Vorinostat; first compound 0.08 µM) | relative viability (Vismodegib + Vorinostat; first compound 0.253 µM) | relative viability (Vismodegib + Vorinostat; first compound 0.8 µM) | relative viability (Vismodegib + Vorinostat; first compound 2.53 µM) | relative viability (Vismodegib + Vorinostat; first compound 8 µM) | relative viability (Ruxolitinib + Linsitinib; first compound 0.08 µM) | relative viability (Ruxolitinib + Linsitinib; first compound 0.253 µM) | relative viability (Ruxolitinib + Linsitinib; first compound 0.8 µM) | relative viability (Ruxolitinib + Linsitinib; first compound 2.53 µM) | relative viability (Ruxolitinib + Linsitinib; first compound 8 µM) |
| --- | --- | --- | --- | --- | --- | --- | --- | --- | --- | --- | --- | --- | --- | --- | --- | --- | --- | --- | --- | --- |
| NCI-H1355 | 0.391 | 0.441 | 0.384 | 0.413 | 0.433 | 0.844 | 0.724 | 0.798 | 0.808 | 0.856 | 0.716 | 0.632 | 0.569 | 0.611 | 0.648 | 0.794 | 0.841 | 0.843 | 0.753 | 0.716 |
| HOP-62 | 0.4 | 0.411 | 0.425 | 0.46 | 0.39 | 0.988 | 0.873 | 1.16 | 0.748 | 0.979 | 0.681 | 0.591 | 0.535 | 0.58 | 0.469 |  | 0.995 | 1.05 | 0.991 | 0.867 |
| NCI-H3122 | 0.173 | 0.191 | 0.167 | 0.18 | 0.19 | 1.03 | 1.01 | 1.01 | 0.924 | 0.965 | 0.986 | 0.994 | 0.994 | 1.09 | 0.992 | 1.09 | 1.06 | 1.02 | 0.815 | 1.04 |
| NCI-H1437 | 0.305 | 0.303 | 0.309 | 0.311 | 0.325 | 0.855 | 0.977 | 1.03 | 0.95 | 0.892 | 0.824 | 0.756 | 0.806 | 0.732 | 0.804 | 0.983 | 0.994 | 1.02 | 0.966 | 0.653 |
| BEN | 0.455 | 0.483 | 0.469 | 0.479 | 0.512 | 0.951 | 0.939 | 0.929 | 0.964 | 0.99 | 0.581 | 0.527 | 0.578 | 0.531 | 0.528 | 0.751 | 0.887 | 1.15 | 0.758 | 1.03 |
| NCI-H520 | 0.182 | 0.224 | 0.254 | 0.198 | 0.288 | 0.916 | 0.928 | 0.966 | 0.974 | 1.16 | 0.71 | 0.697 | 0.747 | 0.553 | 0.701 |  | 1.08 | 1.16 | 0.847 | 0.679 |
| NCI-H2087 | 0.188 | 0.235 | 0.22 | 0.217 | 0.232 | 1 | 0.916 | 0.97 | 0.934 | 0.896 | 0.762 | 0.598 | 0.402 | 0.56 | 0.302 | 0.861 | 1.08 | 0.983 | 0.692 | 0.638 |
| NCI-H2347 | 0.443 | 0.418 | 0.419 | 0.448 | 0.488 | 0.902 | 0.997 | 0.857 | 0.962 | 1.04 | 0.553 | 0.616 | 0.519 | 0.711 | 0.507 | 0.893 | 0.939 | 1.05 | 0.886 | 0.965 |
| NCI-H838 | 0.214 | 0.225 | 0.227 | 0.261 | 0.273 | 0.869 | 0.967 | 0.992 | 0.99 | 1.02 | 0.696 | 0.715 | 0.727 | 0.743 | 0.733 | 1.03 | 0.903 | 0.87 | 0.534 | 0.36 |
| LXF-289 | 0.582 | 0.605 | 0.595 | 0.594 | 0.6 | 0.959 | 0.929 | 0.98 | 0.976 | 0.919 | 0.787 | 0.724 | 0.846 | 0.731 | 0.629 | 0.919 | 0.972 | 0.858 | 0.892 | 0.813 |
| LC-2-ad | 0.477 | 0.501 | 0.482 | 0.479 | 0.544 | 0.824 | 0.794 | 0.849 | 0.82 | 0.828 | 0.7 | 0.729 | 0.701 | 0.667 | 0.529 | 0.741 | 0.86 | 0.814 | 0.68 | 0.496 |
| NCI-H2085 | 0.459 | 0.474 | 0.483 | 0.467 | 0.502 | 0.843 | 0.874 | 0.957 | 0.86 | 0.52 | 0.743 | 0.835 | 0.821 | 0.852 | 0.727 | 0.875 | 0.888 | 1.01 | 0.836 | 0.685 |
